Measurements published in patent US6706663B2, “Herbicidal 3-heterocyclic substituted benzisothiazole and benzisoxazole compounds” (Wyeth, priority 2000, dated 2004).

Columns and labels:
[1] = tested on: CASOB (Cassia obtusifolia); test: Postemergence herbicidal evaluation; assay type: in vivo, L.; conditions: postemergence
Summary of the method: (§1)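 Visual 0–9 injury scores versus control plants, covering stand, vigour, malformation, size, chlorosis and general appearance, taken four to five weeks post-spray and averaged over replicate tests. Plants were sprayed at roughly two weeks old and held on greenhouse benches.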

[2] = tested on: CHEAL (Chenopodium album); test: Postemergence herbicidal evaluation; assay type: in vivo, L.; conditions: postemergence
Summary of the method: as §1

[3] = tested on: AMBEL (Ambrosia artemisifolia); test: Postemergence herbicidal evaluation; assay type: in vivo, L.; conditions: postemergence
Summary of the method: as §1

CYPIR (Cyperus iria) = test: Flooded paddy, preemergence weed control; assay type: in vivo; conditions: rated 3-4 weeks after treatment, 0-9 rating scale
Summary of the method: (§2)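 Visual 0-9 rating versus control, scoring stand, vigor, malformation, size, chlorosis and overall appearance. Silt loam soil, propagules in top 0.5 cm; flood depth 1.5–3 cm held for the whole test; greenhouse.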

[4] = tested on: IPOHE (Ipomoea hederacea); test: Preemergence herbicidal evaluation; assay type: in vivo, (L.) Jacq.; conditions: rated 4-5 weeks after treatment
GALAP (Galium aparine) = test: Postemergence herbicidal evaluation; assay type: in vivo; conditions: postemergence
Summary of the method: as §1

[5] = tested on: SAGPY (Sagittaria pygmaea); test: Flooded paddy, preemergence weed control; assay type: in vivo, L.; conditions: rated 3-4 weeks after treatment, 0-9 rating scale
Summary of the method: as §2

ZEAMX (Corn, Field) = test: Preemergence herbicidal evaluation; assay type: in vivo, Zea mays, L.; conditions: rated 4-5 weeks after treatment
[6] = tested on: ABUTH (Abutilon theophrasti); test: Postemergence herbicidal evaluation; assay type: in vivo, Medic.; conditions: postemergence
Summary of the method: as §1

ORYSAT (Rice, Tebonnet) = test: Flooded paddy, post-transplant rice tolerance; assay type: in vivo, Oryza sativa, (L.) Tebonnet; conditions: flooded paddy, post-transplant rice, rated 3-4 weeks after treatment, 0-9 rating scale
Summary of the method: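 Steps: transplant two ten-day-old seedlings into silt loam; flood to 1.5-3 cm above soil; apply herbicide post-transplant; maintain water on greenhouse benches; rate stand, vigor, malformation, size and chlorosis on a 0-9 visual scale versus control.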

[7] = tested on: GLXMAW (Soybean, Williams); test: Preemergence herbicidal evaluation; assay type: in vivo, Glycine max, (L.) Merr. cv Williams; conditions: rated 4-5 weeks after treatment

SMILES | CASOB herbicidal rating ([1]; rate 0.0320 kg/ha) | CASOB herbicidal rating ([1]; rate 0.0620 kg/ha) | CHEAL herbicidal rating ([2]; rate 0.0320 kg/ha) | CHEAL herbicidal rating ([2]; rate 0.0620 kg/ha) | AMBEL herbicidal rating ([3]; rate 0.0320 kg/ha) | AMBEL herbicidal rating ([3]; rate 0.0620 kg/ha) | herbicidal rating, CYPIR (CYPIR (Cyperus iria); rate 0.0080 kg/ha) | herbicidal rating, CYPIR (CYPIR (Cyperus iria); rate 0.0320 kg/ha) | herbicidal rating, CYPIR (CYPIR (Cyperus iria); rate 0.1250 kg/ha) | Preemergence herbicidal rating IPOHE ([4]; Rate 0.0620 kg/ha) | Preemergence herbicidal rating IPOHE ([4]; Rate 0.1250 kg/ha) | GALAP herbicidal rating (GALAP (Galium aparine); rate 0.0320 kg/ha) | GALAP herbicidal rating (GALAP (Galium aparine); rate 0.0620 kg/ha) | herbicidal rating, SAGPY ([5]; rate 0.0080 kg/ha) | herbicidal rating, SAGPY ([5]; rate 0.0320 kg/ha) | herbicidal rating, SAGPY ([5]; rate 0.1250 kg/ha) | Preemergence herbicidal rating ZEAMX (ZEAMX (Corn, Field); Rate 0.0620 kg/ha) | Preemergence herbicidal rating ZEAMX (ZEAMX (Corn, Field); Rate 0.1250 kg/ha) | ABUTH herbicidal rating ([6]; rate 0.0320 kg/ha) | ABUTH herbicidal rating ([6]; rate 0.0620 kg/ha) | also measured
Cc1sccc1-c1nsc2ccc(-n3c(=O)cc(C(F)(F)F)n(C)c3=O)cc12 [Compound 68, 2,4(1H,3H)-pyrimidinedione, 1-methyl-3-[3-(2-methyl-3-thienyl)-1,2-benzisothiazol-5-yl]-6-(trifluoromethyl)-] | 5.0 | 6.0 | 9.0 | 9.0 | 9.0 | 9.0 | 0.0 | 9.0 | 9.0 | 1.5 | 3.0 | 9.0 | 9.0 | 0.0 | 0.0 | 9.0 | 2.5 | 4.0 | 9.0 | 9.0 | Preemergence herbicidal rating IPOHE ([4]; Rate 0.2500 kg/ha): 4.5; Preemergence herbicidal rating ZEAMX (ZEAMX (Corn, Field); Rate 0.2500 kg/ha): 6.0; herbicidal rating, ORYSAT (rice tolerance) (ORYSAT (Rice, Tebonnet); rate 0.0080 kg/ha): 1.5; herbicidal rating, ORYSAT (rice tolerance) (ORYSAT (Rice, Tebonnet); rate 0.0320 kg/ha): 2.5; herbicidal rating, ORYSAT (rice tolerance) (ORYSAT (Rice, Tebonnet); rate 0.1250 kg/ha): 3.5; Preemergence herbicidal rating GLXMAW ([7]; Rate 0.0620 kg/ha): 1.5; Preemergence herbicidal rating GLXMAW ([7]; Rate 0.1250 kg/ha): 3.0; Preemergence herbicidal rating GLXMAW ([7]; Rate 0.2500 kg/ha): 7.5
Cn1c(C(F)(F)F)cc(=O)n(-c2ccc3snc(C4OCC5(CO4)CO5)c3c2)c1=O (centres unmarked) [Compound 70, 1-methyl-3-(3-spiro[m-dioxane-5,2′-oxiran]-2-yl-1,2-benzisothiazol-5-yl)-6-(trifluoromethyl)uracil] | 5.0 | 5.0 | 9.0 | 9.0 | 9.0 | 9.0 | 0.0 | 0.0 | 0.0 | 4.0 | 7.0 | 8.0 | 9.0 | 0.0 | 0.0 | 0.0 | 2.0 | 9.0 | 9.0 | 9.0 | herbicidal rating, ORYSAT (rice tolerance) (ORYSAT (Rice, Tebonnet); rate 0.0080 kg/ha): 0.0; herbicidal rating, ORYSAT (rice tolerance) (ORYSAT (Rice, Tebonnet); rate 0.0320 kg/ha): 0.0; herbicidal rating, ORYSAT (rice tolerance) (ORYSAT (Rice, Tebonnet); rate 0.1250 kg/ha): 0.0; Preemergence herbicidal rating GLXMAW ([7]; Rate 0.0620 kg/ha): 3.0; Preemergence herbicidal rating GLXMAW ([7]; Rate 0.1250 kg/ha): 9.0
Cn1c(C(F)(F)F)cc(=O)n(-c2ccc3snc(C4OC(=O)C(C)(C)O4)c3c2)c1=O (centres unmarked) [Compound 71, 3-[3-(4,4-dimethyl-5-oxo-1,3-dioxolan-2-yl)-1,2-benzisothiazol-5-yl]-1-methyl-6-(trifluoromethyl)uracil] | 0.0 | 2.0 | 6.0 | 9.0 | 7.0 | 6.0 | 0.0 | 0.0 | 0.0 | 7.0 | 9.0 | 2.0 | 7.0 | 0.0 | 0.0 | 0.0 | 5.5 | 8.0 | 9.0 | 9.0 | Preemergence herbicidal rating IPOHE ([4]; Rate 0.2500 kg/ha): 9.0; Preemergence herbicidal rating ZEAMX (ZEAMX (Corn, Field); Rate 0.2500 kg/ha): 8.5; herbicidal rating, ORYSAT (rice tolerance) (ORYSAT (Rice, Tebonnet); rate 0.0080 kg/ha): 0.0; herbicidal rating, ORYSAT (rice tolerance) (ORYSAT (Rice, Tebonnet); rate 0.0320 kg/ha): 0.0; herbicidal rating, ORYSAT (rice tolerance) (ORYSAT (Rice, Tebonnet); rate 0.1250 kg/ha): 0.0; Preemergence herbicidal rating GLXMAW ([7]; Rate 0.0620 kg/ha): 2.5; Preemergence herbicidal rating GLXMAW ([7]; Rate 0.1250 kg/ha): 4.5; Preemergence herbicidal rating GLXMAW ([7]; Rate 0.2500 kg/ha): 6.0
Cn1c(C(F)(F)F)cc(=O)n(-c2ccc3snc(C4OCC(CCl)O4)c3c2)c1=O (centres unmarked) [Compound 72, 3-[3-[4-(chloromethyl)-1,3-dioxolan-2-yl]-1,2-benzisothiazol-5-yl]-1-methyl-6-(trifluoromethyl)uracil] | 5.0 | 5.0 | 9.0 | 9.0 | 9.0 | 9.0 | 0.0 | 3.0 | 9.0 | 3.5 | 6.5 | 9.0 | 9.0 | 0.0 | 0.0 | 8.0 | 8.0 | 8.5 | 9.0 | 9.0 | Preemergence herbicidal rating IPOHE ([4]; Rate 0.2500 kg/ha): 8.0; Preemergence herbicidal rating ZEAMX (ZEAMX (Corn, Field); Rate 0.2500 kg/ha): 9.0; herbicidal rating, ORYSAT (rice tolerance) (ORYSAT (Rice, Tebonnet); rate 0.0080 kg/ha): 0.0; herbicidal rating, ORYSAT (rice tolerance) (ORYSAT (Rice, Tebonnet); rate 0.0320 kg/ha): 7.0; herbicidal rating, ORYSAT (rice tolerance) (ORYSAT (Rice, Tebonnet); rate 0.1250 kg/ha): 8.0; Preemergence herbicidal rating GLXMAW ([7]; Rate 0.0620 kg/ha): 6.5; Preemergence herbicidal rating GLXMAW ([7]; Rate 0.1250 kg/ha): 9.0; Preemergence herbicidal rating GLXMAW ([7]; Rate 0.2500 kg/ha): 9.0
Cn1c(C(F)(F)F)cc(=O)n(-c2ccc3snc(C4OCC(CO)O4)c3c2)c1=O (centres unmarked) [Compound 73, 3-[3-[4-(hydroxymethyl)-1,3-dioxolan-2-yl]-1,2-benzisothiazol-5-yl]-1-methyl-6-(trifluoromethyl)uracil] | 3.0 | 4.0 | 9.0 | 9.0 | 9.0 | 9.0 | 0.0 | 0.0 | 9.0 | 7.0 | 9.0 | 9.0 | 9.0 | 0.0 | 0.0 | 3.0 | 6.5 | 9.0 | 9.0 | 9.0 | Preemergence herbicidal rating IPOHE ([4]; Rate 0.2500 kg/ha): 9.0; Preemergence herbicidal rating ZEAMX (ZEAMX (Corn, Field); Rate 0.2500 kg/ha): 9.0; herbicidal rating, ORYSAT (rice tolerance) (ORYSAT (Rice, Tebonnet); rate 0.0080 kg/ha): 0.0; herbicidal rating, ORYSAT (rice tolerance) (ORYSAT (Rice, Tebonnet); rate 0.0320 kg/ha): 0.0; herbicidal rating, ORYSAT (rice tolerance) (ORYSAT (Rice, Tebonnet); rate 0.1250 kg/ha): 5.0; Preemergence herbicidal rating GLXMAW ([7]; Rate 0.0620 kg/ha): 4.0; Preemergence herbicidal rating GLXMAW ([7]; Rate 0.1250 kg/ha): 7.0; Preemergence herbicidal rating GLXMAW ([7]; Rate 0.2500 kg/ha): 8.0
